Assay results: ChEMBL document CHEMBL1201862, “PubChem BioAssay data set” (2004)
Calls of active or inactive are those of the source.

Assays:
[1] = molecular target: Sphingosine 1-phosphate receptor 2 (Homo sapiens, UniProt O95136); assay: Dose Response Cell Based Assay for Agonists of the S1P2 Receptor of Purchased Analogues. [Related pubchem assays: 729, 843, 854, 736 ]; type: functional
Cytochrome P450 2C9 = Cytochrome P450 2C9 (Homo sapiens, UniProt P11712); conditions: Potency
Cytochrome P450 2C19 = Cytochrome P450 2C19 (Homo sapiens, UniProt P33261); assay: qHTS Assay for Inhibitors and Substrates of Cytochrome P450 2C19. [Related pubchem assays: 410 ]; type: ADME; conditions: read-out: Potency
Estrogen receptor beta [2] = molecular target: T1, Estrogen receptor beta (Homo sapiens, UniProt Q92731);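 also: recombinant ER-beta bound to coactivator SRC1 peptide in presence of estradiol agonist; inhibitors block coactivator peptide binding and lower the FRET signal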
Estrogen receptor beta [3] = molecular target: T1, Estrogen receptor beta; assay: blockers of SRC-3 recruitment to ERβ – biochemical, ELISA, streptavidin-HRP readout, orthogonal assay, confirmation (AID 1060)
[4] = molecular target: DNA dC->dU-editing enzyme APOBEC-3A (Homo sapiens, UniProt P31941); assay: Dose Response confirmation of small molecule APOBEC3A DNA Deaminase Inhibitors via a fluorescence-based single-stranded DNA deaminase assay. [Related pubchem assays (depositor defined):AID493011, AID493024]; type: functional
[5] = molecular target: DNA dC->dU-editing enzyme APOBEC-3G (Homo sapiens, UniProt Q9HC16); type: functional;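 also: Dose-response counterscreen measuring inhibition of APOBEC3G DNA deaminase activity, run while confirming APOBEC3A inhibitors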
Galanin receptor type 2 = Galanin receptor type 2 (Homo sapiens, UniProt O43603); assay: Dose Response cell-based high-throughput screening assay to identify antagonists of galanin receptor 2 (GALR2). [Related pubchem assays: 828, 866 ]; type: functional
[6] = NIH-3T3 fibroblast cytotoxicity, dose response, cytotoxicity control, cell-based, fluorescence, Alamar Blue, secondary assay (AID 2327); type: functional;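 also: NIH-3T3 mouse fibroblasts cultured with fluconazole at 8 µg/mL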
[7] = molecular target: Voltage-gated inwardly rectifying potassium channel KCNH2 (Homo sapiens, UniProt Q12809); assay: concentration-dependent hERG rescue from blockers – cell-based, thallium flux, dose response (AID 2121); type: ADME
[8] = fluconazole-exposed Candida albicans growth modulators – fluorescence, retest, confirmation (AID 2467); type: functional, cell-based
[9] = molecular target: T2, Rac GTPase-activating protein 1 (Homo sapiens, UniProt Q9H0H5); assay: blockers of MgcRacGAP-driven Rac1 GTP hydrolysis – biochemical, ADP Hunter fluorescence, primary and confirmatory, confirmation (AID 624330); type: functional
T2 sequence (Q9H0H5 whole entry): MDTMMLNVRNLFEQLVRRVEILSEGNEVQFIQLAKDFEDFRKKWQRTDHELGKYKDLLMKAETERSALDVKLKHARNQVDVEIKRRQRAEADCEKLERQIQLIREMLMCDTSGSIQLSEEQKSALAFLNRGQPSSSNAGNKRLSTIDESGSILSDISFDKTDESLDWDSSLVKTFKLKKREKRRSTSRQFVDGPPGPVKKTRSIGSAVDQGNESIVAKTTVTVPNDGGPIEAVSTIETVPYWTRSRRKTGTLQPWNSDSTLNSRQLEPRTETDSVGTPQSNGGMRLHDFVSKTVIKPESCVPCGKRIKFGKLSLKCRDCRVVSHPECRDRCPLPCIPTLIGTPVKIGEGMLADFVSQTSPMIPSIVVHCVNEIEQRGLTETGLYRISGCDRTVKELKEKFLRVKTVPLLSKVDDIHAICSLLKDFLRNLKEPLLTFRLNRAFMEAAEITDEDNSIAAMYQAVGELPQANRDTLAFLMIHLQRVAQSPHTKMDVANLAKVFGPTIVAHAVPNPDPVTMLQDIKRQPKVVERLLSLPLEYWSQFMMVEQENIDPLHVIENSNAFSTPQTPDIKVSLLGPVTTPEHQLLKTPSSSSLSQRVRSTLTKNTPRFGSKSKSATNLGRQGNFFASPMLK

NADPH oxidase 1 [10] = molecular target: T3, NADPH oxidase 1 (Homo sapiens, UniProt Q9Y5S8); assay: Luminescence-based cell-based dose response assay to identify inhibitors of NADPH oxidase 1 (NOX1).; type: functional
T3 sequence (Q9Y5S8 whole entry): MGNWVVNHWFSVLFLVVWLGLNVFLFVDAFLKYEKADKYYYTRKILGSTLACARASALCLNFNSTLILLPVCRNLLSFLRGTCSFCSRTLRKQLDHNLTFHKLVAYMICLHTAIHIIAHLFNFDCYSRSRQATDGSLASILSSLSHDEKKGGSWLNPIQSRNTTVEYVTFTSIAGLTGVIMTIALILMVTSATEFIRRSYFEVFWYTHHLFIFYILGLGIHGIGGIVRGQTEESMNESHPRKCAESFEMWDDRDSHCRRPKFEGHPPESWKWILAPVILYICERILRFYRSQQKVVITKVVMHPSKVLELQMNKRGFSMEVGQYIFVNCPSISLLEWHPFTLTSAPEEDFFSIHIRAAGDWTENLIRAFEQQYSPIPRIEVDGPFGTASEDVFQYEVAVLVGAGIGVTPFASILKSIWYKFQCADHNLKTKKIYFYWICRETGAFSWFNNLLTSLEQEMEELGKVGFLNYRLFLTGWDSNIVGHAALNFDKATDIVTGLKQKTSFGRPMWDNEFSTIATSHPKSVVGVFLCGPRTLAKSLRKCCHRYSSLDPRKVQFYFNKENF

NADPH oxidase 1 [11] = molecular target: T3, NADPH oxidase 1; type: functional, cell-based
[12] = molecular target: T4, Heat shock factor protein 1 (Mus musculus, UniProt P38532); assay: enhancement of HSF1-driven luciferase signal – cell-based, NIH3T3, luminescence, dose retest, confirmation (AID 435004); type: functional;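 also: stress induced by proteasome inhibitor MG132 added 30 min after compound; luciferase reporter driven by HSF1 response element in NIH3T3 cells; actives raise luminescence as potentiators of the MG132 stress response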
T4 sequence (P38532 whole entry): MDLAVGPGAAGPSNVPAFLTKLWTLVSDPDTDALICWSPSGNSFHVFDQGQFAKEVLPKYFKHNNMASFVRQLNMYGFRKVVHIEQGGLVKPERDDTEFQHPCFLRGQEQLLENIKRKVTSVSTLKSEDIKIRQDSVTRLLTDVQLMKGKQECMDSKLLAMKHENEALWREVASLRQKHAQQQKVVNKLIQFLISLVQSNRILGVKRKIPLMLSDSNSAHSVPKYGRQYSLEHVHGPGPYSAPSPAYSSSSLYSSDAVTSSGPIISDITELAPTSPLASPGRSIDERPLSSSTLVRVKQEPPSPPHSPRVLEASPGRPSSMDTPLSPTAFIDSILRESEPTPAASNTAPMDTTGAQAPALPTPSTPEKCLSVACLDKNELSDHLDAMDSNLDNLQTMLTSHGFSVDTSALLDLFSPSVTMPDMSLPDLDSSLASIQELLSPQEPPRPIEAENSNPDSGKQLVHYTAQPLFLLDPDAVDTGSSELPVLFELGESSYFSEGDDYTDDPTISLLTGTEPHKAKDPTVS

[13] = THP-1 cell cytotoxicity, dose response, cytotoxicity control for non-replicating M. tuberculosis project (AID 489025); type: functional
Protein RecA = molecular target: T5, Protein RecA (Mycobacterium tuberculosis, UniProt P9WHJ3); assay: Fluorescence Cell-Free Homogeneous Dose Retest to Identify Inhibitors of RecA-Intein Splicing Activity. [Related pubchem assays (depositor defined):AID2097, AID2223, AID489010, AID492950]; type: functional
T5 sequence (P9WHJ3 whole entry): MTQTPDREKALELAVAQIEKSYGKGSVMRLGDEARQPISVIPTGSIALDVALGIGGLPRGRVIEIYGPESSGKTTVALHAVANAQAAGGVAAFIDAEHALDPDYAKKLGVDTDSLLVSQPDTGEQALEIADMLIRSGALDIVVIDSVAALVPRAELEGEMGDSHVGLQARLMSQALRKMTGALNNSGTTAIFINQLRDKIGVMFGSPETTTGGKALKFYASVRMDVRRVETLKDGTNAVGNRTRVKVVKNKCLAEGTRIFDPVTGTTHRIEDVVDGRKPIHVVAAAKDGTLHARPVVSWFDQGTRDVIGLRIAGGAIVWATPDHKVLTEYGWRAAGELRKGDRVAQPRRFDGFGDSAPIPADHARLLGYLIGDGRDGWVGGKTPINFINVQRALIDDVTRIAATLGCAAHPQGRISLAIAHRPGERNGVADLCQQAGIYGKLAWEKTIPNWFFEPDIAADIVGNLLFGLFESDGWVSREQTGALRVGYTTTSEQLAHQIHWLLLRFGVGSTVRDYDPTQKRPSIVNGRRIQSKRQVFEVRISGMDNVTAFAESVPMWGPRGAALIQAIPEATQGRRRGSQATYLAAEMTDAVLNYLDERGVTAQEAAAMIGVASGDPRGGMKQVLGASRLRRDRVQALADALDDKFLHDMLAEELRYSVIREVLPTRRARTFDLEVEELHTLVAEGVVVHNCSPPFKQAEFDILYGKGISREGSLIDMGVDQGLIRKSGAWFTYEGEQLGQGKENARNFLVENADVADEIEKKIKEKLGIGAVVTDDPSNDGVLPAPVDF

[14] = Vero E6 cell cytotoxicity, dose response, cytotoxicity control for non-replicating M. tuberculosis project, secondary assay (AID 492998); type: functional, VeroE6; conditions: Vero C1008
[15] = Luminescent dose response cell-based high throughput screening assay for inhibitors of the Janus kinase 2 mutant JAK2V617F. [Related pubchem assays: 1446 (Primary screen.), 1521 (Confirmation assay.), 1486 (Counter screen.)]; type: functional
[16] = Fluorescence-based cell-based high throughput dose response assay for inhibitors of the interaction of nucleotide-binding oligomerization domain containing 2 (NOD2) and the receptor-interacting serine-threonine kinase 2 (RIPK2).; type: functional; conditions: Homo sapiens
[17] = general cell-killing toxicity readout – plate reader, dry powder samples, cytotoxicity control for PAX8 inhibitor project, dose response (AID 743021); type: functional, cell-based
Paired box protein Pax-8 = Paired box protein Pax-8 (Homo sapiens, UniProt Q06710); assay: PAX8 transcriptional activity inhibition in RMG-I – RMG-I cells, luciferase, cherry-pick, dose response (AID 687027); type: functional, cell-based;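 also: luciferase reporter driven by Pax8 target thyroperoxidase promoter measured by SteadyGlo luminescence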
cells = type: functional
[18] = HepG2 cell cytotoxicity, dose response, cytotoxicity control for non-replicating M. tuberculosis project (AID 489018); type: functional; conditions: Mycobacterium tuberculosis
[19] = molecular target: T6, Replicative DNA helicase DnaB (Mycobacterium tuberculosis, UniProt P9WMR3); assay: DnaB intein splicing inhibitors, dose response, biochemical, cell-free fluorescence (AID 449749); type: functional
T6 sequence (P9WMR3 whole entry): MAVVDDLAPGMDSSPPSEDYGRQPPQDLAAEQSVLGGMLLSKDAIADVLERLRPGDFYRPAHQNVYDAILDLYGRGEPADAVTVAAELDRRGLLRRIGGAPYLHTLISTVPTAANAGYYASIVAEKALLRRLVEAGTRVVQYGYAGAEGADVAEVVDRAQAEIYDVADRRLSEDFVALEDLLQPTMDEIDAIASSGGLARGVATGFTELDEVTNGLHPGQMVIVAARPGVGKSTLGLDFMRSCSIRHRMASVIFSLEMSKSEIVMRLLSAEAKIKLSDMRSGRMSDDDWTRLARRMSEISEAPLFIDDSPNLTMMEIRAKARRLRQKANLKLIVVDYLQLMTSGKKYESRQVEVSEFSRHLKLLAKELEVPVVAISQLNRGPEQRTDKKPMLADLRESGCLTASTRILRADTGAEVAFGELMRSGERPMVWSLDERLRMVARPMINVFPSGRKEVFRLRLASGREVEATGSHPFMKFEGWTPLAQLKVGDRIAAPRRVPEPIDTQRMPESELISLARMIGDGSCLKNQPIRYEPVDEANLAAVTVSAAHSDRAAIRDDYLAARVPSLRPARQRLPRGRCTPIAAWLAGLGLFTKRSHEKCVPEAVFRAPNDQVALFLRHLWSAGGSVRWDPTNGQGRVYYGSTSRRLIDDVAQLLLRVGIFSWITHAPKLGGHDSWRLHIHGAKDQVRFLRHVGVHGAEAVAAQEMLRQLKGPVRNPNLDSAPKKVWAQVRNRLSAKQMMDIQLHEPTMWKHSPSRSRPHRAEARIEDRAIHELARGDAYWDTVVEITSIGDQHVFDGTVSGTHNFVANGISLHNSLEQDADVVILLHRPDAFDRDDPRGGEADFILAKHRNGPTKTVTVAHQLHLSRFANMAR

Danio rerio = assay: In Vivo Angiogenesis Dose-Response Confirmation. [Related pubchem assays: 732 (Assay preceding this confirmatory assay.)]; type: functional, organism-based

T1 sequence (Q92731 whole entry): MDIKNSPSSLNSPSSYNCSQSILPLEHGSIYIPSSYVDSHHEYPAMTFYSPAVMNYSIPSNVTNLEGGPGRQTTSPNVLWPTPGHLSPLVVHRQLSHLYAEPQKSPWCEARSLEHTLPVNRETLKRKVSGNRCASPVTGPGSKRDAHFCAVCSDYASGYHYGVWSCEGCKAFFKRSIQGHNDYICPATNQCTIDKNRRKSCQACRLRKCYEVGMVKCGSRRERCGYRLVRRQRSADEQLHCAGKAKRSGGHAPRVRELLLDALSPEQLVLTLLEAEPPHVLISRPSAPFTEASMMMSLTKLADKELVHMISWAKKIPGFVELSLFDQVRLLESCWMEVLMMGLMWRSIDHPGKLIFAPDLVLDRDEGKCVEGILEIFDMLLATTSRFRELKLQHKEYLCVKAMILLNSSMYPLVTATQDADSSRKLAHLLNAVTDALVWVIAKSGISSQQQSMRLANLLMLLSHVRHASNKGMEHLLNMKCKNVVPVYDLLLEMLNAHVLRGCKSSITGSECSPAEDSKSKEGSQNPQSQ
Cytochrome P450 2C9, sequence (P11712 whole entry): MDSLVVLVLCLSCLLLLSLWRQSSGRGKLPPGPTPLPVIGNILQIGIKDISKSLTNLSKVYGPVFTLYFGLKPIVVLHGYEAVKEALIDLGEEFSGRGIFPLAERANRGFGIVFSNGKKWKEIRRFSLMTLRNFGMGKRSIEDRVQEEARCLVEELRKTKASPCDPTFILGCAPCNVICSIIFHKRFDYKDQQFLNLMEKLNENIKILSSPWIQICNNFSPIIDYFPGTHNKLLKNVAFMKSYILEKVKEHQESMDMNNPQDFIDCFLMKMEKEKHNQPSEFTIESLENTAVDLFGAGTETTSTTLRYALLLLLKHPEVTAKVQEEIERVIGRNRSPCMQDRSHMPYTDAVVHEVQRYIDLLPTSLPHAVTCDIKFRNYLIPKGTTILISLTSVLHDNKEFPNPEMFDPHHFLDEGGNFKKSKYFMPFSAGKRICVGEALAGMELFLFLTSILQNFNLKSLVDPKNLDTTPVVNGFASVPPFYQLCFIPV
Cytochrome P450 2C19, sequence (P33261 whole entry): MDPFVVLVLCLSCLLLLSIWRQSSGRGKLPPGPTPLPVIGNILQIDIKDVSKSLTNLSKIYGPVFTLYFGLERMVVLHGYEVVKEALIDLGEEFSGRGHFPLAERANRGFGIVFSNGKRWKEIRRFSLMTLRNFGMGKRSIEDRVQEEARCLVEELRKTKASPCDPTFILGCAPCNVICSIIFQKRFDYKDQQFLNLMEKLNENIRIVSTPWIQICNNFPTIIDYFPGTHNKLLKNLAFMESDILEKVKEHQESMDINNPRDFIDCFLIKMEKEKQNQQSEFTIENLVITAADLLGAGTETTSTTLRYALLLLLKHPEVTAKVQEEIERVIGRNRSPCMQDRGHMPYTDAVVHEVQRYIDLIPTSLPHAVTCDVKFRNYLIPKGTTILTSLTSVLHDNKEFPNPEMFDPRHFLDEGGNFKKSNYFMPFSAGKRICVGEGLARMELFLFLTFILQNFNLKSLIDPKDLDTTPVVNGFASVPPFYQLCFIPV
Galanin receptor type 2, sequence (O43603 whole entry): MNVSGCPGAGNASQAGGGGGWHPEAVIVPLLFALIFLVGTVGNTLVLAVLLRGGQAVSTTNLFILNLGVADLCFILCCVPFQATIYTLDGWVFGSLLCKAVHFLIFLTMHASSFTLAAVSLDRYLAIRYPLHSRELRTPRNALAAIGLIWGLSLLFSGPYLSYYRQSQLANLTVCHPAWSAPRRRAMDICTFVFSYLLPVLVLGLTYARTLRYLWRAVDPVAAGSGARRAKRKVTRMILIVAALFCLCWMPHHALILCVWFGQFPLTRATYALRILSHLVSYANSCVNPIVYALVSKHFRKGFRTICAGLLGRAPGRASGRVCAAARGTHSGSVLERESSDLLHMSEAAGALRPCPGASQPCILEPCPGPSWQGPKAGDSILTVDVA
Sphingosine 1-phosphate receptor 2, sequence (O95136 whole entry): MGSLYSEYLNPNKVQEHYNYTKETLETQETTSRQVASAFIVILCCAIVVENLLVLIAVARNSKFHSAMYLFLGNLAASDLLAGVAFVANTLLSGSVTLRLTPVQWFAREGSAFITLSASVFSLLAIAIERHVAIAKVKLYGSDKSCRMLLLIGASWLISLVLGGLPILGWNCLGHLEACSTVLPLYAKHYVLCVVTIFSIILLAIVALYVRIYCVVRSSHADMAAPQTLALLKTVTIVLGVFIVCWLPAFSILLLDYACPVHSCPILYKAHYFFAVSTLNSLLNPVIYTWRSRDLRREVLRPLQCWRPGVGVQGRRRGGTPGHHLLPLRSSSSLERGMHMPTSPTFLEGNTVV
Voltage-gated inwardly rectifying potassium channel KCNH2, sequence (Q12809 whole entry): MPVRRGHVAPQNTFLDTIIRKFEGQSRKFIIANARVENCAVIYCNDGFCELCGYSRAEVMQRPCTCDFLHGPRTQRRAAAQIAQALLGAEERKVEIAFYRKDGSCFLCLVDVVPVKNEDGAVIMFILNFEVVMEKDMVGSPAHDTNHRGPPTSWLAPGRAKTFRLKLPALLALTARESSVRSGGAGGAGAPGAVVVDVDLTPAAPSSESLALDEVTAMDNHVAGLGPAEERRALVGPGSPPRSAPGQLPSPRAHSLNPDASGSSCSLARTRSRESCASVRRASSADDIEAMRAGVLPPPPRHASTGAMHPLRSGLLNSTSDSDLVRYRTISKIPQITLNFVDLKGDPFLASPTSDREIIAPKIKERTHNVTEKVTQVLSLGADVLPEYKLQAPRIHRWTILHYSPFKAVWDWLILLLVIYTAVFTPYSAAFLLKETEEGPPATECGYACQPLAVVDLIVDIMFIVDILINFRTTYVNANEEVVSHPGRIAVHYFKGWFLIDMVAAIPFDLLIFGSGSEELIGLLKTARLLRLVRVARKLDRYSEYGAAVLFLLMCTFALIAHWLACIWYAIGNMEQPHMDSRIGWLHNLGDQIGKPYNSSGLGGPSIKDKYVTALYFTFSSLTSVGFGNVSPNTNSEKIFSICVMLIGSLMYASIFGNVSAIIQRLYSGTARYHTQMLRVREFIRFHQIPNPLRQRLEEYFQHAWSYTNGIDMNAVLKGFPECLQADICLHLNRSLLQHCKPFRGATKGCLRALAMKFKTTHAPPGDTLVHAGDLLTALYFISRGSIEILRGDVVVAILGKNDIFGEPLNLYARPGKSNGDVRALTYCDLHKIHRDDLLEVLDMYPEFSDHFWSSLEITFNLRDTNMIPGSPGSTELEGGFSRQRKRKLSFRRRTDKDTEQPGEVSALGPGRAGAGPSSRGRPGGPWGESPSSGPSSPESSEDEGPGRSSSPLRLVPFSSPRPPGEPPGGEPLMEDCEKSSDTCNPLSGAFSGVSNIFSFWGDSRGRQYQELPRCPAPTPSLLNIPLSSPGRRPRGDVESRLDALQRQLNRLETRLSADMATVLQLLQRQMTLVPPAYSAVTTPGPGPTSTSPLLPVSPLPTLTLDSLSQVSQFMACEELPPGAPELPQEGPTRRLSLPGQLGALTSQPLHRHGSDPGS
DNA dC->dU-editing enzyme APOBEC-3G, sequence (Q9HC16 whole entry): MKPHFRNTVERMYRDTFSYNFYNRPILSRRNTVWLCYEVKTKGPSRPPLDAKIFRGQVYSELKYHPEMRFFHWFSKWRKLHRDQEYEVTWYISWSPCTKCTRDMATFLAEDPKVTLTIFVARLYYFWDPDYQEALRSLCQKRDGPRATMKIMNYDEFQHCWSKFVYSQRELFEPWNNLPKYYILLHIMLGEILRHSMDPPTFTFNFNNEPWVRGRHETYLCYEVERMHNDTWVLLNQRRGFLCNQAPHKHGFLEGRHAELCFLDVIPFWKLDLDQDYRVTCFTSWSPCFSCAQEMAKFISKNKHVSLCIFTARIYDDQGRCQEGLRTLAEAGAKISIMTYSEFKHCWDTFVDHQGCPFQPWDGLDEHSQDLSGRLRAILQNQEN
DNA dC->dU-editing enzyme APOBEC-3A, sequence (P31941 whole entry): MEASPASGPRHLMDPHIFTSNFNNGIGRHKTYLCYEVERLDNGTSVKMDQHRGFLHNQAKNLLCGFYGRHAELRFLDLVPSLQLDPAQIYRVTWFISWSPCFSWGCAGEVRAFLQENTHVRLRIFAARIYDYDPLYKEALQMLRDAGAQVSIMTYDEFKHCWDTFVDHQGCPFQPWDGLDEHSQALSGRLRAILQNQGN
Paired box protein Pax-8, sequence (Q06710 whole entry): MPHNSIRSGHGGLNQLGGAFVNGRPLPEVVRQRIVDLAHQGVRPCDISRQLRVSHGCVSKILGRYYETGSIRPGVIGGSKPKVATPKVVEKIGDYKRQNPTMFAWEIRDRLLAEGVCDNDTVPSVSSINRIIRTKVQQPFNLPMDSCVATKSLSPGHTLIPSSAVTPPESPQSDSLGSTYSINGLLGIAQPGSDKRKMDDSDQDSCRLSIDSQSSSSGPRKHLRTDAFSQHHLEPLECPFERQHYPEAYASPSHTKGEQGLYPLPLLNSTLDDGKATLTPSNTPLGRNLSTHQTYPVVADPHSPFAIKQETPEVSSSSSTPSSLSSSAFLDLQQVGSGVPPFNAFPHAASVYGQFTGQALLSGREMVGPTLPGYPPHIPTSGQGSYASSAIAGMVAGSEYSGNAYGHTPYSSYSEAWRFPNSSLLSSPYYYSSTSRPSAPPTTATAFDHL

Cc1sc2ncn(CC(=O)c3cc(C)n(Cc4ccccc4)c3C)c(=O)c2c1C
EC50 [1]: > 30 µM (not active)

CC(=O)[C@H]1[C@H]2[C@H](C(=O)[C@@H]3OC[C@H]2O3)[C@@H]2c3ccccc3C=CN12
AC50 (Cytochrome P450 2C9): 31.6 µM (inconclusive)
AC50 (Cytochrome P450 2C19): 31.6 µM (inconclusive)

O=C(Cc1cccs1)Nc1nnc(Cc2ccccc2)s1
IC50 (Estrogen receptor beta [2]): 1.7 µM (active)
IC50 (Estrogen receptor beta [3]): 14.4 µM (not active)
IC50 [4]: 12 µM (active)
IC50 [5]: 25.3 µM (active)

O=C(/C=C/c1ccc(Cl)cc1)NC(=S)Nc1ccc(NC(=O)c2ccco2)cc1
IC50 (Galanin receptor type 2): 6.76 µM (active)

O=C(Nc1nc(=O)c2ccccc2s1)c1ccc(Cl)cc1
EC50 [6]: > 150 µM (inactive)
EC50 [7]: 0.84 µM (active)
EC50 [8]: > 38 µM (not active)

COc1ccc(NC(=O)Nc2ccc(N(C)C)cc2)cc1
IC50 [9]: 23.5 µM (active)
IC50 (NADPH oxidase 1 [10]): 0.156 µM (active)
IC50 (Estrogen receptor beta [3]): 14.4 µM (not active)
IC50 (NADPH oxidase 1 [11]): 0.432 µM (active)

Cc1nc2c(=O)n(C)c(=O)n(C)c2nc1Cl
EC50 [12]: 14.3 µM (active)
CC50 [13]: 12.1 µM (active)
EC50 (Protein RecA): 8.48 µM (active)
CC50 [14]: 7.41 µM (active)
IC50 [15]: 1.37 µM (active)
IC50 [16]: 4.73 µM (active)
AC50 [17]: 32.9 µM (active)
AC50 (Paired box protein Pax-8): 8.88 µM (active)
IC50 (cells): 6.22 µM (active)
CC50 [18]: 10.6 µM (active)
AC50 [19]: 17.3 µM (active)

O=C1Nc2ccc(F)cc2/C1=C1/Nc2ccc(Br)cc2C1=O
IC50 (Danio rerio): 0.35 µM (not active)
